According to the supplement of paper PMC10307832:

These cell lines were tested with CC(O)(CS(=O)(=O)c1ccc(F)cc1)C(=O)Nc1ccc(C#N)c(C(F)(F)F)c1 [Bicalutamide] + CC(C)C[C@H](NC(=O)[C@H](Cc1ccccc1)NC(=O)c1cnccn1)B(O)O [Bortezomib] (partner 0.002 µM) (assay: relative viability (nuclei count vs DMSO), 5 days (fraction); higher = more cells survive). Conditions: first compound 0.08 µM.
Summary of the method: (§1)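 Five library-drug doses in √10 steps were combined with a fixed anchor-drug dose, or a single drug was given alone, by pin tool to lung cancer cell lines in 1536-well plates the day after seeding. Nuclei were stained and counted after 5 days. Relative viability is the nuclei count in treated wells over that in vehicle wells, taken as the median of duplicate plates.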
NCI-H2405 showed a relative viability of 1.02. SW 1573 showed a relative viability of 1.05. 201T was tested, and the relative viability was 1.1. In the case of NCI-H1915, the relative viability is reported as 0.962. For HCC-827, the relative viability was 1.12. With LXF-289 the relative viability was 0.98. Work on NCI-H2347 yielded a relative viability of 1.21. NCI-H650 gave a relative viability of 0.907. For CAL-12T, the relative viability was 0.942. In the case of NCI-H1651, the relative viability is reported as 0.917. EPLC-272H gave a relative viability of 0.873. NCI-H23 gave a relative viability of 0.964. In the case of NCI-H1355, the relative viability is reported as 1.21. For NCI-H322M, the relative viability was 1.13. NCI-H1437 gave a relative viability of 0.493. Cell Line NCI-H1755 has a relative viability of 0.97. Cell Line NCI-H2085 has a relative viability of 1.14. Work on HCC-15 yielded a relative viability of 1.03. In the case of PC-3 [JPC-3], the relative viability is reported as 0.808. EKVX showed a relative viability of 0.994. Cell Line LC-2-ad has a relative viability of 1.07. Cell Line NCI-H1975 has a relative viability of 0.314. Work on SK-LU-1 yielded a relative viability of 1.33. Cell Line NCI-H661 has a relative viability of 0.84. Work on RERF-LC-KJ yielded a relative viability of 1.24.

Same assay, conditions: first compound 0.253 µM
Cell Line HCC-78 has a relative viability of 0.504. Cell Line LCLC-97TM1 has a relative viability of 0.543. NCI-H2023 was tested, and the relative viability was 0.932. In the case of A-427, the relative viability is reported as 1.12. Cell Line NCI-H460 has a relative viability of 1.09. In the case of NCI-H1734, the relative viability is reported as 0.843. For NCI-H520, the relative viability was 0.391. Work on NCI-H2405 yielded a relative viability of 1.01. SW 1573 showed a relative viability of 0.842. 201T showed a relative viability of 1.06. Cell Line NCI-H1915 has a relative viability of 0.944. HCC-827 was tested, and the relative viability was 0.964. For LXF-289, the relative viability was 0.908. In the case of NCI-H2347, the relative viability is reported as 0.989. NCI-H650 gave a relative viability of 0.87. In the case of CAL-12T, the relative viability is reported as 0.858. NCI-H1651 was tested, and the relative viability was 0.864. For EPLC-272H, the relative viability was 0.666. Cell Line NCI-H23 has a relative viability of 1.03. For NCI-H1355, the relative viability was 1.07. With NCI-H322M the relative viability was 1.32. With NCI-H1437 the relative viability was 0.372. Cell Line NCI-H1755 has a relative viability of 0.892. Work on NCI-H2085 yielded a relative viability of 0.944. HCC-15 was tested, and the relative viability was 0.953. With PC-3 [JPC-3] the relative viability was 0.909. Work on EKVX yielded a relative viability of 1.1. In the case of LC-2-ad, the relative viability is reported as 1.05. NCI-H1975 gave a relative viability of 0.296. For SK-LU-1, the relative viability was 1.37. For NCI-H661, the relative viability was 0.931. Work on RERF-LC-KJ yielded a relative viability of 0.951.

Same assay, conditions: first compound 0.8 µM
Cell Line HCC-78 has a relative viability of 0.479. NCI-H441 showed a relative viability of 0.531. With LCLC-97TM1 the relative viability was 0.635. For NCI-H2023, the relative viability was 1.11. A-427 was tested, and the relative viability was 1. For NCI-H460, the relative viability was 1.35. For NCI-H1734, the relative viability was 1.12. NCI-H520 gave a relative viability of 0.96. With NCI-H2405 the relative viability was 1.05. SW 1573 gave a relative viability of 1.25. Cell Line 201T has a relative viability of 1.08. NCI-H1915 gave a relative viability of 1.11. HCC-827 was tested, and the relative viability was 1.04. For LXF-289, the relative viability was 1.02. NCI-H2347 was tested, and the relative viability was 1.4. Cell Line NCI-H650 has a relative viability of 0.918. In the case of CAL-12T, the relative viability is reported as 1.12. In the case of NCI-H1651, the relative viability is reported as 1.04. EPLC-272H showed a relative viability of 0.904. For NCI-H23, the relative viability was 1.49. NCI-H1355 showed a relative viability of 1.43. NCI-H322M gave a relative viability of 1.4. Work on NCI-H1437 yielded a relative viability of 0.759. Cell Line NCI-H1755 has a relative viability of 0.938. NCI-H2085 gave a relative viability of 1.08. In the case of HCC-15, the relative viability is reported as 1.21. Cell Line PC-3 [JPC-3] has a relative viability of 0.908. EKVX was tested, and the relative viability was 1.37. For LC-2-ad, the relative viability was 0.997. Cell Line NCI-H1975 has a relative viability of 0.417. Work on SK-LU-1 yielded a relative viability of 1.89. NCI-H661 showed a relative viability of 0.81. RERF-LC-KJ gave a relative viability of 1.23.

Same assay, conditions: first compound 2.53 µM
HCC-78 showed a relative viability of 0.556. In the case of NCI-H441, the relative viability is reported as 0.398. LCLC-97TM1 showed a relative viability of 0.461. With NCI-H2023 the relative viability was 0.8. Work on A-427 yielded a relative viability of 0.93. NCI-H460 gave a relative viability of 1.12. NCI-H1734 gave a relative viability of 0.915. Work on NCI-H520 yielded a relative viability of 0.432. Cell Line NCI-H2405 has a relative viability of 0.986. For SW 1573, the relative viability was 0.912. For 201T, the relative viability was 1.12. For NCI-H1915, the relative viability was 0.909. For HCC-827, the relative viability was 0.98. LXF-289 was tested, and the relative viability was 0.963. Cell Line NCI-H2347 has a relative viability of 0.903. NCI-H650 gave a relative viability of 0.553. CAL-12T was tested, and the relative viability was 0.768. Work on NCI-H1651 yielded a relative viability of 0.959. With EPLC-272H the relative viability was 0.894. NCI-H23 showed a relative viability of 0.786. NCI-H1355 was tested, and the relative viability was 1.1. NCI-H322M was tested, and the relative viability was 1.35. Cell Line NCI-H1437 has a relative viability of 0.455. NCI-H1755 was tested, and the relative viability was 0.895. Work on NCI-H2085 yielded a relative viability of 0.996. HCC-15 showed a relative viability of 0.983. PC-3 [JPC-3] gave a relative viability of 0.818. EKVX gave a relative viability of 0.952. LC-2-ad was tested, and the relative viability was 1.01. Cell Line NCI-H1975 has a relative viability of 0.372. With SK-LU-1 the relative viability was 1.09. Cell Line NCI-H661 has a relative viability of 0.849. RERF-LC-KJ gave a relative viability of 1.07.

These cell lines were tested with C(C(=O)C(=O)O)Br [Bromopyruvate] + Nc1nc2[nH]cc(CCc3ccc(C(=O)N[C@@H](CCC(=O)O)C(=O)O)cc3)c2c(=O)[nH]1 [Pemetrexed] (partner 0.2 µM) in the same assay as above. Conditions: first compound 1 µM.
Summary of the method: as §1
For HCC-78, the relative viability was 0.938. With NCI-H441 the relative viability was 0.255. LCLC-97TM1 gave a relative viability of 0.182. Cell Line NCI-H2023 has a relative viability of 0.231. A-427 gave a relative viability of 1.05. With NCI-H460 the relative viability was 0.0598. NCI-H1734 gave a relative viability of 0.391. NCI-H520 was tested, and the relative viability was 0.64. In the case of NCI-H2405, the relative viability is reported as 1.14. With SW 1573 the relative viability was 0.783. 201T showed a relative viability of 0.327. NCI-H1915 was tested, and the relative viability was 0.496. HCC-827 was tested, and the relative viability was 0.26. Work on LXF-289 yielded a relative viability of 0.874. In the case of NCI-H2347, the relative viability is reported as 0.42. With NCI-H650 the relative viability was 0.971.
